Measured values: patent US8829021B2, “Treatment of pediatric tumors” (Sigma-Tau Industrie Farmaceutiche Riunite S.p.A., priority 2007, dated 2014)
Several values for one entry are separate records, joined by “and”; a condition that tells them apart may be missing. Equal entries are not always repeated.

How the values were obtained:
[1] = test system: TE-671 (rhabdomyosarcoma); assay: In vivo antitumoral activity, TE-671 rhabdomyosarcoma xenograft; parameters: species or system nude athymic mice (human tumor xenograft); conditions: 30 mg/kg i.v., q4dx4
Description: (§1) Exponentially growing tumor cells were injected s.c. into nude athymic mice. The number of tumor cells was previously chosen by a growth curve. […] Animals were housed under a light-dark cycle, keeping temperature and humidity constant. Parameters of the animal rooms were assessed as follows: 22±2° C. temperature, 55±10% relative humidity, about 15-20 filtered air changes/hour and 12 hour circadian cycle of artificial light (7 a.m., 7 p.m.). At request, the environmental conditions were monitored and the data are retained in Animal Housing Archives. Drinking water was supplied ad libitum. Each mouse was offered daily a complete pellet diet (GLP 4RF21, Mucedola) throughout the study. The analytical certificates of animal food and water are retained at Sigma-Tau premises. All animals were weighed before starting the experiment and were subdivided into the different dosage groups.
(§2) Tumor growth was followed by biweekly measurements of tumor diameters with a Vernier caliper. Tumor volume (TV, mm^3) was calculated as: [length (mm)×width (mm)^2]/2, where the width and the length are the shortest and the longest diameters of each tumor, respectively.
(§3) The efficacy of the drug treatment was assessed as tumor volume inhibition (TVI %) in treated versus control mice, calculated as: 100−[(mean tumor volume of treated animals/mean tumor volume of control animals)×100].

[2] = test system: PFSK (primitive neuroectodermal tumors/PNET); assay: In vivo antitumoral activity, PFSK primitive neuroectodermal tumor (PNET) xenograft; parameters: species or system nude athymic mice (human tumor xenograft); conditions: 30 mg/kg i.v., q4dx4
Description: as §1, §2, §3

[3] = Toxicity of the drug treatments in tumor-bearing mice; format: in vivo, nude athymic mice; conditions: treatment i.v., q4dx4
Description: (§4) The antitumor effect was evaluated against different human pediatric tumor models: SK-ND-AS (neuroblastoma); PSFK (primitive neuroectodermal tumors/PNET); TE-671 (rhabdomyosarcoma). ST 1968 was evaluated in comparison to CPT-11 (irinotecan) by intravenously delivery of 30 mg/10 ml/kg for ST1968 and 50 mg/10 ml/kg for CPT-11 according to the schedule q4dx4.
(§5) Exponentially growing tumor cells were injected s.c. into nude athymic mice. The number of tumor cells was previously chosen by a growth curve. Mice were housed inside cages of makrolon (33.2×15×13 cm) with stainless steel cover-feed and sterilized and dust-free bedding cobs. Animals were housed under a light-dark cycle, keeping temperature and humidity constant. Parameters of the animal rooms were assessed as follows: 22±2° C. temperature, 55±10% relative humidity, about 15-20 filtered air changes/hour and 12 hour circadian cycle of artificial light (7 a.m., 7 p.m.). At request, the environmental conditions were monitored and the data are retained in Animal Housing Archives. Drinking water was supplied ad libitum. […]
The toxicity of the drug treatments was determined as: body weight loss percent (% BWL max)=100−(mean BWday x/mean BWday 1×100), where BWx is the mean BW at the day of maximal loss during the treatment and BW1 is the mean BW on the 1st day of treatment.

SK-N-AS (neuroblastoma) = assay: In vivo antitumoral activity, SK-N-AS neuroblastoma xenograft; parameters: species or system nude athymic mice (human tumor xenograft); conditions: SK-N-AS xenograft s.c. in nude mice; 30 mg/kg i.v., q4dx4
Description: as §1, §2, §3

[4] = test system: human pediatric tumor xenograft models; assay: In vivo antitumoral activity on different pediatric tumor xenograft models (overall); parameters: species or system nude athymic mice (human tumor xenograft); conditions: all models, compared with CPT-11; 30 mg/kg i.v., q4dx4
Description: as §4, §5
Tumor growth was followed by biweekly measurements of tumor diameters with a Vernier caliper. Tumor volume (TV, mm^3) was calculated as: [length (mm)×width (mm)^2]/2, where the width and the length are the shortest and the longest diameters of each tumor, respectively. […]

In the case of `CC[C@@]1(O)C(=O)OCc2c1cc1n(c2=O)Cc2c-1nc1ccccc1c2/C=N\OCCN` [ST1968, 7-(2-amino)ethoxyiminomethylcamptothecin], the “TVI % (tumor volume inhibition)” value ([1]; TE-671 xenograft s.c. in nude mice, 30 mg/kg) is reported as 100% and 99%, the “complete responses (in words)” value ([1]; rhabdomyosarcoma model) is reported as “high rate of complete responses” and the “TVI % (tumor volume inhibition)” value ([2]; PFSK xenograft s.c. in nude mice, 30 mg/kg) is reported as 99% and 100%. For the same molecule, the “complete responses (in words)” value ([2]; PNET model) was “high rate of complete responses”, the “tolerability / signs of acute or delayed toxicity (in words)” value [3] was “generally well tolerated by mice with no signs of acute or delayed toxicity” and the “TVI % (tumor volume inhibition)” value (SK-N-AS (neuroblastoma)) was 98%. For the same molecule, the “antitumor activity / complete tumor regressions (in words)” value [4] was “appreciable rate of complete tumor regressions in all models”.
